The structures appear in SMILES notation.

The first assay has as its target T1, Aurora A (Homo sapiens, UniProt O14965).
T1 construct: C-terminally Histidine4 (His4)-tagged Aurora A full-length protein
T1 sequence (O14965 1-403): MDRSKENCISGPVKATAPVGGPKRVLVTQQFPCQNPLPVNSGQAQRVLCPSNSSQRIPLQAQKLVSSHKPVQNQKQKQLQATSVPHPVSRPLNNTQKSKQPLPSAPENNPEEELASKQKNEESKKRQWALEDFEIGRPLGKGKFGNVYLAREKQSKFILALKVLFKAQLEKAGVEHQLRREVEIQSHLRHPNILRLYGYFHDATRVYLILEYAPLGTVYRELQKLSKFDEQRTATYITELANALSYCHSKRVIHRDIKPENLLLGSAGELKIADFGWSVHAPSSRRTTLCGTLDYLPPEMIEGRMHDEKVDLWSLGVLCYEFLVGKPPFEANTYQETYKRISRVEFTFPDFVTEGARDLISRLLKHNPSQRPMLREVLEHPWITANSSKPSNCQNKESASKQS
Kind of assay: IC50 determination for inhibitors of Aurora A (96 MTP-ELISA). It is filed as biochemical. The settings on record: His4-tagged full-length Aurora A 250 ng/ml, PKB-GSK2 200 nM, ATP 4 μM, 90 min at room temperature; read-out: IC50 Aurora A kinase inhibition. From the text: IC50 Determination for Inhibitors of Aurora A
Aurora A is a serine threonine kinase involved in spindle assembly and chromosome segregation.
The assay is a typically ELISA-type assay where biotinylated substrate (PKB-GSK2) is phosphorylated. Phosphorylation is detected by peroxidase (POD) labelled polyclonal antibody (PAK<M-Ig>S-IgG-POD) and phosphopeptide monoclonal antibody (Mab) (MAK<P-GSK>M-27E5-IgG). The assay is validated for IC50-determination.
Aurora A-His-4 C-terminally Histidine4 (His4)-tagged Aurora A full-length protein, stock solution 0.7 mg/ml, final conc.: 250 ng/ml
PKB-GSK2 biotinylated peptide derived from human GSK3-alpha sequence (Biotin-SGRARTSSFAEPGG-CONH2), stock solution 600 μM, final conc.: 200 nM
ATP Adenosine-5′-triphosphate 1 mM, diluted in kinase buffer, (Roche Diagnostics GmbH, Cat. No.: 127531-001,), final conc.: 4 μM
Kinase buffer 50 mM TRIS, 10 mM MgCl2, 1 mM DTT, 0.1% Tween 20, pH 7.8
This assay is performed in 96-well format for IC50 determination with 5 samples (each with 8 concentrations by twofold testing), 100 μl incubation volume and the following plate layout:
Step/Action 1. Sample preparation: add 24 μl per well samples (descending sequence) diluted in kinase buffer to assay plate (final conc. for DMSO 1%). 2. Add directly 16 μl Aurora-A-his-4 diluted in kinase buffer to assay plate. 3. Add directly 40 μl per well PKB-GSK2/ATP mixture to assay plate, (final conc.: Aurora A=250 ng/ml, GSK2=200 nM, ATP=4 μM). Negative control: without ATP. 4. Incubate assay plate for exactly 90 min at room temperature. 5. Stop reaction by adding 20 μl EDTA in all wells. 6. Wash assay plate 3× with 200 μl washing buffer per well. 7. Add 100 μl MAK<P-GSK>M27E5-IgG (1:10000) and PAK<M-Ig>S-IgG-POD (1:6000) dissolved in 3% BSA/PBS-T to assay plate per well. 8. Incubate assay plate for 60 min at room temperature. 9. Wash assay plate 3× with 200 μl washing buffer per well 10. Add 100 μl ABTS solution to assay plate per well, incubate for approx. 4 min at RT on MTP shaker. 11. Measure absorption at 405/492 nm. 12. Calculate % inhibition as: (1−(Esample−ENC)/(EPC−ENC))×100 13. Calculate IC50 using a non-linear curve fit (XLfit software (ID Business Solution Ltd., Guilford, Surrey, UK))
In general terms: An ELISA detects its analyte on a solid surface through an enzyme-linked reagent.
For `Cc1cc(-c2nc3cc4[nH]c(=O)n(C)c4cc3[nH]2)n[nH]1` [Example 10, 3-Methyl-6-(5-methyl-1H-pyrazol-3-yl)-3,5-dihydro-1H-benzo[1,2-d;4,5-d′]diimidazol-2-one], the IC50 (usually the point on the concentration scale where inhibition reaches its midpoint) is 10 to 500 nM.
Same read-out and setting: with `CCc1[nH]nc(-c2nc3cc4c(cc3[nH]2)C(C)(C)C(=O)N4)c1C` [Example 19, 2-(5-Ethyl-4-methyl-1H-pyrazol-3-yl)-7,7-dimethyl-5,7-dihydro-1H-imidazo[4,5-f]indol-6-one] the figure was 10 to 500 nM; with `CC1(C)CC(=O)Nc2cc3nc(-c4cc(C5CC5)[nH]n4)[nH]c3cc21` [Example 25, 2-(5-Cyclopropyl-1H-pyrazol-3-yl)-8,8-dimethyl-1,5,7,8-tetrahydro-imidazo[4,5-g]quinolin-6-one], 10 to 500 nM.

In a further assay the test system is HCT 116 cells. Kind of assay: CellTiter-Glo assay in HCT 116 cells (antiproliferative activity). The settings on record: HCT 116 human colon carcinoma cells, 5 days (120 h) incubation, CellTiter-Glo luminescence. It is filed as cell-based. From the text: Antiproliferative Activity
CellTiter-Glo™ Assay in HCT 116 Cells
The CellTiter-Glo™ Luminescent Cell Viability Assay (Promega) is a homogeneous method of determining the number of viable cells in culture based on quantitation of the ATP present, which signals the presence of metabolically active cells.
HCT 116 cells (human colon carcinoma, ATCC-No. CCI-247) were cultivated in RPMI 1640 medium with GlutaMAX™ I (Invitrogen, Cat-No. 61870-010), 2.5% Fetal Calf Serum (FCS, Sigma Cat-No. F4135 (FBS)); 100 Units/ml penicillin/100 μg/ml streptomycin (=Pen/Strep from Invitrogen Cat. No. 15140). For the assay the cells were seeded in 384 well plates, 1000 cells per well, in the same medium. The next day the test compounds were added in various concentrations ranging from 30 μM to 0.0015 μM (10 concentrations, 1:3 diluted). After 5 days the CellTiter-Glo™ assay was done according to the instructions of the manufacturer (CellTiter-Glo™ Luminescent Cell Viability Assay, from Promega). In brief: the cell-plate was equilibrated to room temperature for approximately 30 minutes and than the CellTiter-Glo™ reagent was added. The contents were carefully mixed for 15 minutes to induce cell lysis. After 45 minutes the luminescent signal was measured in Victor 2, (scanning multiwell spectrophotometer, Wallac).
Medium: RPMI 1640 with GlutaMAX™ I (Invitrogen, Cat-Nr. 61870), 5% FCS (Sigma Cat.-No. F4135), Pen/Strep (Invitrogen, Cat No. 15140).
HCT116 (ATCC-No. CCI-247): 1000 cells in 60 μl per well of 384 well plate (Greiner 781098, μClear-plate white)
After seeding incubate plates 24 h at 37° C., 5% CO2
2nd. Day: Induction (Treatment with Compounds, 10 Concentrations):
In order to achieve a final concentration of 30 μM as highest concentration 3.5 μl of 10 mM compound stock solution were added directly to 163 μl media. Then step e) of the dilution procedure described below, was followed.
In order to achieve the second highest to the lowest concentrations, a serial dilution with dilution steps of 1:3 was followed according to the procedure (a-e) as described here below: • for the second highest concentration add 10 μl of 10 mM stock solution of compound to 20 μl dimethylsulfoxide (DMSO) • dilute 8×1:3 (always 10 μl to 20 μl DMSO) in this DMSO dilution row (results in 9 wells with concentrations from 3333.3 μM to 0.51 μM) • dilute each concentration 1:47.6 (3.5 μl compound dilution to 163 μl media) • add 10 μl of every concentration to 60 μl media in the cell plate resulting in final concentration of DMSO: 0.3% in every well and resulting in 10 final concentration of compounds ranging from 30 μM to 0.0015 μM. • Each compound is tested in triplicate. • Incubate 120 h (5 days) at 37° C., 5% CO2 Analysis:
Add 30 μl CellTiter-Glo™ Reagent (prepared from CellTiter-Glo™ Buffer and CellTiter-Glo™ Substrate (lyophilized) purchased from Promega) per well, • shake 15 minutes at room temperature • incubate further 45 minutes at room temperature without shaking Measurement:
Victor 2 scanning multiwell spectrophotometer (Wallac), Luminescence mode (0.5 sec/read, 477 nm)
Determine IC50 using a non-linear curve fit (XLfit software (ID Business Solution Ltd., Guilford, Surrey, UK))
In general terms: In ATP-based viability assays light output follows the ATP content of the culture.
`CCN1C(=O)C(C)(C)c2cc3nc(-c4cc(OC)[nH]n4)[nH]c3cc21` [Example 44, 5-Ethyl-2-(5-methoxy-1H-pyrazol-3-yl)-7,7-dimethyl-5,7-dihydro-3H-imidazo[4,5-f]indol-6-one] had an IC50 of 100 to 10000 nM.
For `CCN1C(=O)C(C)(C)c2cc3nc(-c4cc[nH]n4)[nH]c3cc21` [Example 32, 5-Ethyl-7,7-dimethyl-2-(1H-pyrazol-3-yl)-5,7-dihydro-3H-imidazo[4,5-f]indol-6-one], the IC50 fell in the range of 100 to 10000 nM.
Same read-out and setting: then `CCN1C(=O)C(C)(C)c2cc3nc(-c4cc(CC(C)C)n[nH]4)[nH]c3cc21` [Example 15, 5-Ethyl-2-(5-isobutyl-2H-pyrazol-3-yl)-7,7-dimethyl-5,7-dihydro-3H-imidazo[4,5-f]indol-6-one], with 100 to 10000 nM.
As to `CCN1C(=O)C(C)(C)c2cc3nc(-c4cc(C(F)(F)F)[nH]n4)[nH]c3cc21` [Example 39, 5-Ethyl-7,7-dimethyl-2-(5-trifluoromethyl-1H-pyrazol-3-yl)-5,7-dihydro-3H-imidazo[4,5-f]indol-6-one], the IC50 lay within 100 to 10000 nM.
The same measure, in the same setting: then `CCN1C(=O)C(C)(C)c2cc3nc(-c4cc(C)[nH]n4)[nH]c3cc21` [Example 12, 5-Ethyl-7,7-dimethyl-2-(5-methyl-1H-pyrazol-3-yl)-5,7-dihydro-3H-imidazo[4,5-f]indol-6-one], with 100 to 10000 nM; and `CCN1C(=O)C(C)(C)c2cc3[nH]c(-c4cc(SC)[nH]n4)nc3cc21` [Example 45, 5-Ethyl-7,7-dimethyl-2-(5-methylsulfanyl-1H-pyrazol-3-yl)-5,7-dihydro-1H-imidazo[4,5-f]indol-6-one], with 100 to 10000 nM; and `O=C1Nc2cc3nc(-c4cc(C5CC5)[nH]n4)[nH]c3cc2C12CCCC2` [Example 43, 2-(5-Cyclopropyl-2H-pyrazol-3-yl)-spiro-5,7-dihydro[cyclopentane-1′,7-imidazo[4,5-f]indol]-6(3H)-one], with 100 to 10000 nM.
On the same count and under the same terms, with `CC(C)c1cc(-c2nc3cc4c(cc3[nH]2)C(C)(C)C(=O)N4)[nH]n1` [Example 22, 2-(5-Isopropyl-2H-pyrazol-3-yl)-7,7-dimethyl-5,7-dihydro-1H-imidazo[4,5-f]indol-6-one] the figure was 100 to 10000 nM; with `CC1(C)C(=O)Nc2cc3nc(-c4cc[nH]n4)[nH]c3cc21` [Example 20, 7,7-Dimethyl-2-(1H-pyrazol-3-yl)-5,7-dihydro-1H-imidazo[4,5-f]indol-6-one], 100 to 10000 nM; with `CCCc1cc(-c2nc3cc4c(cc3[nH]2)N(C)C(=O)C4(C)C)[nH]n1` [Example 14, 5,7,7-Trimethyl-2-(5-propyl-2H-pyrazol-3-yl)-5,7-dihydro-3H-imidazo[4,5-f]indol-6-one], 1200 nM.
Still for that read-out and setting: with `CC(C)Cc1cc(-c2nc3cc4c(cc3[nH]2)N(C)C(=O)C4(C)C)[nH]n1` [Example 16, 2-(5-Isobutyl-2H-pyrazol-3-yl)-5,7,7-trimethyl-5,7-dihydro-3H-imidazo[4,5-f]indol-6-one] the figure was 100 to 10000 nM; with `CN1C(=O)C(C)(C)c2cc3nc(-c4cc[nH]n4)[nH]c3cc21` [Example 30, 5,7,7-Trimethyl-2-(1H-pyrazol-3-yl)-5,7-dihydro-3H-imidazo[4,5-f]indol-6-one], 100 to 10000 nM; with `CC1(C)C(=O)Nc2cc3nc(-c4cc(C(F)(F)F)n[nH]4)[nH]c3cc21` [Example 38, 7,7-Dimethyl-2-(5-trifluoromethyl-2H-pyrazol-3-yl)-5,7-dihydro-1H-imidazo[4,5-f]indol-6-one], 10000 to 100000 nM.
Compound `CCCc1cc(-c2nc3cc4c(cc3[nH]2)N(CC)C(=O)C4(C)C)[nH]n1` [Example 33, 5-Ethyl-7,7-dimethyl-2-(5-propyl-2H-pyrazol-3-yl)-5,7-dihydro-3H-imidazo[4,5-f]indol-6-one; compound with acetic acid] yielded a 50% inhibitory concentration (IC50) of 100 to 10000 nM.
On the same count and under the same terms, then `CC(C)Cc1cc(-c2nc3cc4c(cc3[nH]2)NC(=O)C42CCCC2)[nH]n1` [Example 8, 2-(5-Isobutyl-2H-pyrazol-3-yl)-spiro-5,7-dihydro[cyclopentane-1′,7-imidazo[4,5-f]indol]-6(3H)-one], with 100 to 10000 nM.
The same measure, in the same setting: with `CN1C(=O)C(C)(C)c2cc3nc(-c4cc(C(F)(F)F)n[nH]4)[nH]c3cc21` [Example 42, 5,7,7-Trimethyl-2-(5-trifluoromethyl-2H-pyrazol-3-yl)-5,7-dihydro-3H-imidazo[4,5-f]indol-6-one] the figure was 980 nM.

(Values after patent publication US7285569B2, “Tricycles, their manufacture and use as pharmaceutical agents” (Hoff Hoffmann-La Roche Inc., priority 2004, dated 2007).)
